Type in all cases: functional
Holding throughout (set-up): scale not given: the % may be the effect or the level left

For assay [1], the system named is Rattus norvegicus. Kind of assay: Analgesic activity inRattus norvegicus albino (rat) assessed as reduction of minimum electric shock-induced pain at 100 mg/kg after 2 hr relative to control.
Assay [2] deals with Rattus norvegicus. Kind of assay: Analgesic activity inRattus norvegicus albino (rat) assessed as reduction of minimum electric shock-induced pain at 100 mg/kg after 1 hr relative to control.
Assay [3] has as its system Rattus norvegicus. Kind of assay: Anti-inflammatory activity inRattus norvegicus albino (rat) assessed as reduction of carrageenan-induced paw edema at 100 mg/kg, po administered 1 hr prior to carrageenan challenge measured after 3 hr by mercury plethysmographic analysis relative to control.
The test system of assay [4] is Rattus norvegicus. Kind of assay: Anti-inflammatory activity inRattus norvegicus albino (rat) assessed as reduction of cotton pellet-induced dry weight of granuloma at 100 mg/kg, po measured after 7 days relative to control.
Assay [5] deals with Rattus norvegicus. Kind of assay: Anti-inflammatory activity inRattus norvegicus albino (rat) assessed as reduction of cotton pellet-induced dry weight of granuloma at 5 mg/kg, po measured after 7 days relative to control.
Assay [6] relates to Rattus norvegicus. Kind of assay: Anti-inflammatory activity inRattus norvegicus albino (rat) assessed as reduction of carrageenan-induced paw edema at 5 mg/kg, po administered 1 hr prior to carrageenan challenge measured after 3 hr by mercury plethysmographic analysis relative to control. (In general: The carrageenan paw model is a standard test of acute inflammation.)
Assay [7] concerns Rattus norvegicus. Kind of assay: Analgesic activity inRattus norvegicus albino (rat) assessed as reduction of minimum electric shock-induced pain at 5 mg/kg after 2 hr relative to control.
The test system of assay [8] is Rattus norvegicus. Kind of assay: Analgesic activity inRattus norvegicus albino (rat) assessed as reduction of minimum electric shock-induced pain at 5 mg/kg after 1 hr relative to control.

`Cc1c(/N=C/c2nc3ccc(I)cc3c(=O)n2-c2ccc(Cl)cc2)c(=O)n(-c2ccccc2)n1C`: the Activity with Rattus norvegicus [1] was 54.2%; with Rattus norvegicus [2], 53.7%; in the assay with Rattus norvegicus [3] it was 47.4%; with Rattus norvegicus [4], 60.7%.
In the same order, the values of `O=c1c2cc(I)ccc2nc(C2CC(c3ccccc3)=NN2)n1-c1ccc(Cl)cc1` (centres undefined) are 59.2%, 55.4%, 50.4% and 71.9%.
Turning to `O=C1OC(c2ccccc2)=N/C1=C/c1nc2ccc(I)cc2c(=O)n1-c1ccc(Cl)cc1`, the Activity in the assay with Rattus norvegicus [1] was 63.3%; with Rattus norvegicus [2] it was 60.9%; in the assay with Rattus norvegicus [3], 49.6%; in the assay on Rattus norvegicus [4], 72.6%.
As to `COc1ccc2c(c1)c(CC(=O)O)c(C)n2C(=O)c1ccc(Cl)cc1` [INDOMETHACIN], the Activity in the assay on Rattus norvegicus [5] came out at 75.2%; in the assay with Rattus norvegicus [6], 78.3%.
In the case of `O=C(/C=C/c1nc2ccc(I)cc2c(=O)n1-c1ccc(F)cc1)c1ccccc1`, the Activity is 54.1% with Rattus norvegicus [1], 46.9% in the assay with Rattus norvegicus [2], 28.3% in the assay on Rattus norvegicus [3] and 41.8% in the assay on Rattus norvegicus [4].
As for `Cc1c(N(C)CS(=O)(=O)[O-])c(=O)n(-c2ccccc2)n1C.[Na+]` [DIPYRONE SODIUM], the Activity worked out at 85.7% in the assay on Rattus norvegicus [7] and 82.9% in the assay with Rattus norvegicus [8].
With `CCOc1ccccc1-n1c(N)c(C#N)c(-c2nc3ccc(I)cc3c(=O)n2-c2ccc(F)cc2)c(C#N)c1=O`, the Activity in the assay on Rattus norvegicus [1] came out at 53.1%; in the assay with Rattus norvegicus [2], 45.1%; with Rattus norvegicus [3] it was 20.7%; in the assay with Rattus norvegicus [4], 52.2%.
With `Cc1c(/N=C/c2nc3ccc(I)cc3c(=O)n2-c2ccc(F)cc2)c(=O)n(-c2ccccc2)n1C`, the Activity in the assay on Rattus norvegicus [1] is on record as 65.6%; with Rattus norvegicus [2], 64.8%; in the assay with Rattus norvegicus [3] it was 53.5%; in the assay with Rattus norvegicus [4], 73.5%.
Taken in the same sequence, the figures for `O=C1NC(=S)S/C1=C/c1nc2ccc(I)cc2c(=O)n1-c1ccc(F)cc1` were 61.3%, 57.9%, 44.8% and 67.3%.
In the same order, the values of `CC(=O)c1c(-c2nc3ccc(I)cc3c(=O)n2-c2ccc(Cl)cc2)[nH][nH]c1=O` are 61.9%, 47.9%, 48.3% and 72.2%.
On to `CCOc1ccccc1/N=C/c1nc2ccc(I)cc2c(=O)n1-c1ccc(F)cc1`, for which the Activity in the assay on Rattus norvegicus [1] is given as 56.1%; with Rattus norvegicus [2], 39.3%; with Rattus norvegicus [3] it was 38.9%; in the assay with Rattus norvegicus [4] it was 50.2%.
For the compound `O=C(N/N=C/c1nc2ccc(I)cc2c(=O)n1-c1ccc(F)cc1)c1ccncc1`, the Activity in the assay with Rattus norvegicus [1] was found to be 64.3%; in the assay with Rattus norvegicus [2] it was 57.1%; in the assay on Rattus norvegicus [3] it was 45.3%; in the assay on Rattus norvegicus [4], 66.7%.

The values above are taken from ChEMBL document CHEMBL3045120, “Synthesis, characterization, and evaluation of some novel 4(3H)-quinazolinone derivatives as anti-inflammatory and analgesic agents” (2013).
